Measurements: PubChem BioAssay AID330 (DTP/NCI, 2004)
Values joined by “and” are separate entries in the source; they are usually repeats but may differ in a detail not shown here. Equal entries are not always repeated. Inconclusive results and toxic doses are left out. How the source made its calls: active means survival T/C of 150% or more; inactive means T/C below 125% in these data.

Tested on: P388 leukemia ip, CD2F1 mice, survival T/C
Assay: NCI In Vivo Anticancer Drug Screen. Data for tumor model P388 Leukemia (intraperitoneal) in CD2F1 (CDF1) mice
Conditions: endpoint: median survival time, higher = longer survival
How it was run: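 Mice carrying the transplanted tumor received test compound or vehicle. Survival was recorded in each group, and the value is the treated-group measurement divided by that of the vehicle-treated control group.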

[1] = dose: 50.0 mg/kg/injection, schedule: Q01DX005 (ip), vehicle: saline with Tween-80
[2] = dose: 100.0 mg/kg/injection, schedule: Q01DX005 (ip), vehicle: saline with Tween-80
[3] = dose: 200.0 mg/kg/injection, schedule: Q01DX005 (ip), vehicle: saline with Tween-80
[4] = dose: 6.25 mg/kg/injection, schedule: Q01DX009 (ip), vehicle: saline with Tween-80
[5] = dose: 12.5 mg/kg/injection, schedule: Q01DX009 (ip), vehicle: saline with Tween-80
[6] = dose: 25.0 mg/kg/injection, schedule: Q01DX009 (ip), vehicle: saline with Tween-80
[7] = dose: 50.0 mg/kg/injection, schedule: Q01DX009 (ip), vehicle: saline with Tween-80
[8] = dose: 50.0 mg/kg/injection, schedule: Q01DX005 (ip), vehicle: saline
[9] = dose: 100.0 mg/kg/injection, schedule: Q01DX005 (ip), vehicle: saline
[10] = dose: 100.0 mg/kg/injection, schedule: Q01DX009 (ip), vehicle: saline with Tween-80
[11] = dose: 60.0 mg/kg/injection, schedule: Q01DX005 (ip), vehicle: saline with Tween-80
[12] = dose: 120.0 mg/kg/injection, schedule: Q01DX005 (ip), vehicle: saline with Tween-80
[13] = dose: 50.0 mg/kg/injection, schedule: Q01DX005 (ip), vehicle: Klucel (hydroxypropylcellulose) (HPC)
[14] = dose: 100.0 mg/kg/injection, schedule: Q01DX005 (ip), vehicle: Klucel (hydroxypropylcellulose) (HPC)
[15] = dose: 200.0 mg/kg/injection, schedule: Q01DX005 (ip), vehicle: Klucel (hydroxypropylcellulose) (HPC)

Measured: T/C

CC(C)COc1cccc2[oH+]c(C(=O)[O-])cc(=O)c12.CC(C)COc1cccc2[oH+]c(C(=O)[O-])cc(=O)c12.[Cu+2]
inactive: dose: 12.5 mg/kg/injection, schedule: Q04DX002 (ip), vehicle: saline with Tween-80 104 % of control | dose: 25.0 mg/kg/injection, schedule: Q04DX002 (ip), vehicle: saline with Tween-80 95 % of control | dose: 50.0 mg/kg/injection, schedule: Q04DX002 (ip), vehicle: saline with Tween-80 94 % of control

CCCCOCN1C(=O)NC(c2ccccc2)(c2ccccc2)C1=O
inactive: dose: 60.0 mg/kg/injection, schedule: Q01DX005 (ip), vehicle: Klucel (hydroxypropylcellulose) (HPC) 94 % of control | dose: 120.0 mg/kg/injection, schedule: Q01DX005 (ip), vehicle: Klucel (hydroxypropylcellulose) (HPC) 94 % of control | dose: 240.0 mg/kg/injection, schedule: Q01DX005 (ip), vehicle: Klucel (hydroxypropylcellulose) (HPC) 94 % of control

CCOC(=O)CSc1cc(O)c2ccccc2c1N=Nc1ccc(C(=O)O)cc1
inactive: dose: 12.5 mg/kg/injection, schedule: Q01DX005 (ip), vehicle: saline with Tween-80 94 % of control | dose: 25.0 mg/kg/injection, schedule: Q01DX005 (ip), vehicle: saline with Tween-80 88 % of control | [1] 88 % of control | [2] 86 % of control | [3] 93 % of control

CSC(=S)n1nc(-c2ccccc2)c(N=Nc2ccccc2[N+](=O)[O-])c1-c1ccccc1
inactive: dose: 100.0 mg/kg/injection, schedule: Q04DX002 (ip), vehicle: Klucel (hydroxypropylcellulose) (HPC) 105 % of control | dose: 200.0 mg/kg/injection, schedule: Q04DX002 (ip), vehicle: Klucel (hydroxypropylcellulose) (HPC) 97 % of control

O=C1OC(=O)c2ncccc21
inactive: [4] 101 % of control | [5] 96 % of control | [6] 101 % of control | [7] 111 % of control

O=S(=O)(Nc1ccccn1)c1ccc(NC2OC(CO)C(O)C(O)C2O)cc1 (stereo not given)
inactive: [8] 103 % of control | [9] 98 % of control | dose: 200.0 mg/kg/injection, schedule: Q01DX005 (ip), vehicle: saline 103 % of control

Cc1cc(Cl)nn2cc(CC(=O)O)nc12
inactive: dose: 100.0 mg/kg/injection, schedule: Q01DX001 (ip), vehicle: Klucel (hydroxypropylcellulose) (HPC) 100 % of control | dose: 200.0 mg/kg/injection, schedule: Q01DX001 (ip), vehicle: Klucel (hydroxypropylcellulose) (HPC) 104 % of control | dose: 400.0 mg/kg/injection, schedule: Q01DX001 (ip), vehicle: Klucel (hydroxypropylcellulose) (HPC) 98 % of control

CNC(=O)C1OC(n2cnc3c(N)ncnc32)C(O)C1O (stereo not given)
inactive: dose: 0.78 mg/kg/injection, schedule: Q01DX005 (ip), vehicle: saline with Tween-80 109 % of control and 110 % of control and 120 % of control | dose: 1.56 mg/kg/injection, schedule: Q01DX005 (ip), vehicle: saline with Tween-80 113 % of control and 114 % of control and 116 % of control | dose: 3.13 mg/kg/injection, schedule: Q01DX005 (ip), vehicle: saline with Tween-80 117 % of control

CCOc1ccc2nc3cc(N=Nc4ccc(N(C)C)cc4)ccc3c(N)c2c1
inactive: [7] 110 % of control | [10] 110 % of control

CCCCCCC1(/C=C/c2ccc(Cl)cc2Cl)OCCCO1
inactive: dose: 50.0 mg/kg/injection, schedule: Q01DX009 (ip), vehicle: saline + alcohol 94 % of control | dose: 100.0 mg/kg/injection, schedule: Q01DX009 (ip), vehicle: saline + alcohol 97 % of control | dose: 200.0 mg/kg/injection, schedule: Q01DX009 (ip), vehicle: saline + alcohol 97 % of control

O=C(O)c1nc2ccccc2c(=O)[nH]1
inactive: [6] 95 % of control | [7] 96 % of control | [10] 94 % of control | dose: 200.0 mg/kg/injection, schedule: Q01DX009 (ip), vehicle: saline with Tween-80 93 % of control

COC(=O)C(=O)c1c(C2CC2)[nH]c2[nH]n(-c3ccccc3)c(=O)c2c1=O
inactive: [11] 96 % of control | [12] 91 % of control

NC(CSCCCCl)C(=O)O (stereo not given)
inactive: dose: 50.0 mg/kg/injection, schedule: Q01DX009 (ip), vehicle: saline 95 % of control | dose: 100.0 mg/kg/injection, schedule: Q01DX009 (ip), vehicle: saline 95 % of control | dose: 200.0 mg/kg/injection, schedule: Q01DX009 (ip), vehicle: saline 97 % of control

Cc1cc(=O)oc2nn(CCO)c(C)c12
inactive: [11] 105 % of control | [12] 100 % of control | dose: 240.0 mg/kg/injection, schedule: Q01DX005 (ip), vehicle: saline with Tween-80 91 % of control

O=C(O)CCN1C(=O)c2ccccc2C1=O
inactive: dose: 100.0 mg/kg/injection, schedule: Q04DX003 (ip), vehicle: saline with Tween-80 100 % of control | dose: 200.0 mg/kg/injection, schedule: Q04DX003 (ip), vehicle: saline with Tween-80 100 % of control | dose: 400.0 mg/kg/injection, schedule: Q04DX003 (ip), vehicle: saline with Tween-80 95 % of control

c1ccc2sc(CN(Cc3nc4ccccc4s3)Cc3nc4ccccc4s3)nc2c1
inactive: [1] 103 % of control | [2] 101 % of control | [3] 100 % of control

C=CCn1c(C)nc2c(cnn2C)c1=O
inactive: [13] 101 % of control | [14] 110 % of control | [15] 104 % of control

COc1ccc(N=Nc2c(-c3cccs3)nn(C(N)=S)c2C(F)(F)F)cc1
inactive: [13] 97 % of control | [14] 95 % of control | [15] 97 % of control

O=C(OC1CC2CCCCC2CC1(O)c1ccccc1)c1cccc(Cl)c1 (stereo not given)
inactive: dose: 100.0 mg/kg/injection, schedule: Q01DX001 (ip), vehicle: acetone 99 % of control | dose: 200.0 mg/kg/injection, schedule: Q01DX001 (ip), vehicle: acetone 103 % of control | dose: 400.0 mg/kg/injection, schedule: Q01DX001 (ip), vehicle: acetone 104 % of control

N#C/C(=N\NC(=O)c1ccccc1Cl)c1ccccc1Cl
inactive: [1] 97 % of control | [2] 106 % of control

Cc1ccc(S(=O)(=O)C(=S)Sc2ccccc2)cc1
inactive: dose: 3.12 mg/kg/injection, schedule: Q01DX009 (ip), vehicle: saline with Tween-80 104 % of control | [4] 105 % of control | dose: 12.5 mg/kg/injection, schedule: Q01DX009 (ip), vehicle: alcohol 104 % of control | [5] 109 % of control | dose: 25.0 mg/kg/injection, schedule: Q01DX009 (ip), vehicle: alcohol 107 % of control | dose: 50.0 mg/kg/injection, schedule: Q01DX009 (ip), vehicle: alcohol 107 % of control | [7] 123 % of control

CCCCOC(=O)c1ccccc1OP(=O)(N(C)C)N(C)C
inactive: [8] 107 % of control | [9] 103 % of control

CC(C)(OC(=O)NC(CC(N)=O)C(=O)O)c1ccc(-c2ccccc2)cc1 (stereo not given)
inactive: [13] 98 % of control | [14] 104 % of control | [15] 90 % of control

O=C(O)CC1C=CC2C=CC1C=C2 (stereo not given)
inactive: [1] 101 % of control | [2] 100 % of control | [3] 99 % of control
